Results reported in US12465050B2, “Compositions comprising a pyridine carboxylate herbicide and protoporphyrinogen oxidase (protox) inhibitor herbicides” (priority 2018, dated 2025).

What was measured:
Format in all cases: in vivo
Kochia scoparia (kochia) = assay: Greenhouse postemergence herbicidal effect on KCHSC
From the text: (§1) Greenhouse Trial Methodology—Evaluation of Postemergence Herbicidal Effect
(§2) Seeds of the desired test plant species were planted in a 90:10% v/v (volume/volume) mixture of PRO-MIX® BX (Premier Tech Horticulture, Quakertown, Pa., USA) and PROFILE® GREENS GRADE™ (Profile Products LLC, Buffalo Grove, Ill., USA) planting mixture, which typically has a pH of 5.2 to 6.2 and an organic matter content of at least 50 percent, in plastic pots with a surface area of 103.2 square centimeters (cm^2). In some aspects or embodiments, to help ensure good germination and healthy plants, a fungicide treatment and/or other chemical or physical treatment was applied. The plants were grown for 7-36 days (d) in a greenhouse with an approximate 14-hour (h) photoperiod which was maintained at about 23° C. during the day and 22° C. during the night. Nutrients and water were added on a regular basis and supplemental lighting was provided with overhead metal halide 1000-Watt lamps as necessary. The plants were employed for testing when they reached the second or third true leaf stage.
(§3) Emulsifiable concentrates of each of each pyridine carboxylate herbicide (Compound A or Compound B) were prepared at 100 grams acid equivalent per liter (g ae/L). The emulsifiable concentrates also included a safener, cloquintocet mexyl, at 120 grams active ingredient per liter (g ai/L). An aliquot of each emulsifiable concentrate was placed in a 25 mL glass vial and diluted with an aqueous mixture of 1.25% (v/v) ACTIROB® B esterified rapeseed oil (Bayer Crop Science, Research Triangle Park, N.C., USA) or MSO® Concentrate with LECI-TECH® methylated soybean oil (Loveland Products, Loveland, Colo., USA) to obtain concentrated stock solutions at the highest application rate for each herbicide, based upon a 12 milliliter (mL) application volume at a rate of 187 liters per hectare (L/ha). The concentrated stock solutions were further diluted with an aqueous mixture of 1.25% v/v ACTIROB® B or MSO® Concentrate with LECI-TECH® to obtain stock solutions at reduced application rates for each herbicide. Spray solutions of the herbicide combinations (Compound A or Compound B plus PROTOX inhibitor herbicide) were prepared by adding weighed amounts or aliquots of the PROTOX inhibitor herbicides to the stock solutions of Compound A or Compound B to form 12-mL spray solutions in two-way combinations.
(§4) The spray solutions were applied to the plant material with an overhead Mandel track sprayer equipped with 8002E nozzles calibrated to deliver 187 L/ha over an application area of 0.503 square meters (m^2) at a spray height of 18 inches (43 centimeters (cm)) above the average plant canopy. Control plants were sprayed in the same manner with the solvent blank. All pyridine carboxylate herbicide (component a) application rates are given as “g ae/ha” and all PROTOX inhibitor herbicide (component b) application rates are given as “g ai/ha.”
(§5) The treated plants and control plants were placed in a greenhouse as described above and watered by sub-irrigation to prevent wash-off of the test compounds. After 20-22 d, the condition of the test plants as compared with that of the control plants was determined visually and scored on a scale of 0 to 100 percent where 0 corresponds to no injury and 100 corresponds to complete kill.

[1] = test system: Matricaria discoidea (pineapple weed); assay: Greenhouse postemergence herbicidal effect on MATMT; conditions: Compound A 0, Oxyfluorfen 560 g/ha
From the text: as §1, §2
as §3, with “combinations. […]” for “combinations.”
as §5

[2] = test system: Anthemis arvensis (corn chamomile); assay: Greenhouse postemergence herbicidal effect on ANTAR; conditions: Compound A 0, Oxyfluorfen 560 g/ha
From the text: as §1, §2
as §3, with “combinations. […]” for “combinations.”
as §5

[3] = test system: Lamium purpureum (purple deadnettle); assay: Greenhouse postemergence herbicidal effect on LAMPU; conditions: Compound A 0, Oxyfluorfen 560 g/ha
From the text: as §1, §2
as §3, with “combinations. […]” for “combinations.”
as §5

[4] = test system: Hordeum vulgare (spring barley); assay: Greenhouse postemergence phytotoxicity on crop HORVS
From the text: as §1, §2, §3, §4, §5

[5] = test system: Brassica napus (winter rape); assay: Greenhouse postemergence herbicidal effect on BRSNW
From the text: as §1, §2, §3, §4, §5

[6] = test system: Cyanus segetum (cornflower); assay: Greenhouse postemergence herbicidal effect on CENCY; conditions: Compound A 0, Oxyfluorfen 560 g/ha
From the text: as §1, §2
as §3, with “combinations. […]” for “combinations.”
as §5

[7] = test system: Veronica persica (Persian speedwell); assay: Greenhouse postemergence herbicidal effect on VERPE; conditions: Compound A 0, Oxyfluorfen 560 g/ha
From the text: as §1, §2
as §3, with “combinations. […]” for “combinations.”
as §5

[8] = test system: Hordeum vulgare (winter barley); assay: Greenhouse postemergence phytotoxicity on crop HORVW; conditions: Compound A 0, Oxyfluorfen 560 g/ha
From the text: as §1, §2
as §3, with “combinations. […]” for “combinations.”
as §5

[9] = test system: Viola arvensis (field violet); assay: Greenhouse postemergence herbicidal effect on VIOAR; conditions: Compound A 0, Oxyfluorfen 560 g/ha
From the text: as §1, §2
as §3, with “combinations. […]” for “combinations.”
as §5

[10] = test system: Sinapis arvensis (wild mustard); assay: Greenhouse postemergence herbicidal effect on SINAR
From the text: as §1, §2, §3, §4, §5

[11] = test system: Cirsium arvense (Canadian thistle); assay: Greenhouse postemergence herbicidal effect on CIRAR
From the text: as §1, §2, §3, §4, §5

[12] = test system: Salsola kali (Russian thistle); assay: Greenhouse postemergence herbicidal effect on SASKR
From the text: as §1, §2, §3, §4, §5

[13] = test system: Papaver rhoeas (herbicide-resistant poppy); assay: Greenhouse postemergence herbicidal effect on PAPRH-RES; conditions: Compound A 0, Oxyfluorfen 560 g/ha
From the text: as §1, §2
as §3, with “combinations. […]” for “combinations.”
as §5

[14] = test system: Stellaria media (chickweed); assay: Greenhouse postemergence herbicidal effect on STEME; conditions: Compound A 0, Oxyfluorfen 560 g/ha
From the text: as §1, §2
as §3, with “combinations. […]” for “combinations.”
as §5

[15] = test system: Polygonum convolvulus (wild buckwheat); assay: Greenhouse postemergence herbicidal effect on POLCO
From the text: as §1, §2, §3, §4, §5

[16] = test system: Triticum aestivum (winter wheat); assay: Greenhouse postemergence phytotoxicity on crop TRZAW; conditions: Compound A 0, Oxyfluorfen 560 g/ha
From the text: as §1, §2
as §3, with “combinations. […]” for “combinations.”
as §5

[17] = test system: Triticum aestivum (spring wheat); assay: Greenhouse postemergence phytotoxicity on crop TRZAS
From the text: as §1, §2, §3, §4, §5

[18] = test system: Papaver rhoeas (common poppy); assay: Greenhouse postemergence herbicidal effect on PAPRH; conditions: Compound A 0, Oxyfluorfen 560 g/ha
From the text: as §1, §2
as §3, with “combinations. […]” for “combinations.”
as §5

[19] = test system: Matricaria chamomilla (wild chamomile); assay: Greenhouse postemergence herbicidal effect on MATCH
From the text: as §1, §2, §3, §4, §5

[20] = test system: Viola tricolor (wild pansy); assay: Greenhouse postemergence herbicidal effect on VIOTR
From the text: as §1, §2, §3, §4, §5

[21] = test system: Matricaria inodora (scentless chamomile); assay: Greenhouse postemergence herbicidal effect on MATIN; conditions: Compound A 0, Oxyfluorfen 560 g/ha
From the text: as §1, §2
as §3, with “combinations. […]” for “combinations.”
as §5

[22] = test system: Capsella bursa-pastoris (shepherd's purse); assay: Greenhouse postemergence herbicidal effect on CAPBP; conditions: Compound A 0, Oxyfluorfen 560 g/ha
From the text: as §1, §2
as §3, with “combinations. […]” for “combinations.”
as §5

[23] = test system: Veronica hederifolia (ivy-leaved speedwell); assay: Greenhouse postemergence herbicidal effect on VERHE; conditions: Compound A 0, Oxyfluorfen 560 g/ha
From the text: as §1, §2
as §3, with “combinations. […]” for “combinations.”
as §5

[24] = test system: Brassica napus (spring rape); assay: Greenhouse postemergence herbicidal effect on BRSNN
From the text: as §1, §2, §3, §4, §5

[25] = test system: Chenopodium album L. (common lambsquarters); assay: Greenhouse postemergence herbicidal effect on CHEAL
From the text: as §1, §2, §3, §4, §5

[26] = test system: Amaranthus retroflexus (pigweed); assay: Greenhouse postemergence herbicidal effect on AMARE
From the text: as §1, §2, §3, §4, §5

[27] = test system: Cyperus esculentus (nutsedge); assay: Greenhouse postemergence herbicidal effect on CYPES; conditions: Compound A 0, Saflufenacil 11.2 g/ha
From the text: as §1, §2
(§6) Emulsifiable concentrates of each of each pyridine carboxylate herbicide (Compound A or Compound B) were prepared at 100 grams acid equivalent per liter (g ae/L). The emulsifiable concentrates also included a safener, cloquintocet mexyl, at 120 grams active ingredient per liter (g ai/L). […]
as §5

[28] = test system: Sorghum vulgare (sorghum); assay: Greenhouse postemergence herbicidal effect on SORVU; conditions: Compound A 0, Saflufenacil 11.2 g/ha
From the text: as §1, §2, §6, §5

[29] = test system: Rumex obtusifolius (broad-leaf dock); assay: Greenhouse postemergence herbicidal effect on RUMOB; conditions: Compound A 0, Saflufenacil 11.2 g/ha
From the text: as §1, §2, §3, §4, §5

[30] = test system: Setaria faberi (giant foxtail); assay: Greenhouse postemergence herbicidal effect on SETFA
From the text: as §1, §2, §3, §4, §5

Zea mays (maize) = assay: Greenhouse postemergence phytotoxicity on crop ZEAMX; conditions: Compound A 0, Saflufenacil 11.2 g/ha
From the text: as §1, §2, §6, §5

[31] = test system: Abutilon theophrasti (velvetleaf); assay: Greenhouse postemergence herbicidal effect on ABUTH; conditions: Compound A 0, Saflufenacil 11.2 g/ha
From the text: as §1, §2, §6, §5

[32] = Compound A 0, Oxyfluorfen 560 g/ha
[33] = Compound A 0, Pyraclonil 42.5 g/ha
[34] = Compound A 0, Pyraflufen-ethyl 6 g/ha
[35] = Compound A 0, Saflufenacil 11.2 g/ha
[36] = Compound B 0, Saflufenacil 1 g/ha

CCOc1cc(Oc2ccc(C(F)(F)F)cc2Cl)ccc1[N+](=O)[O-] [Oxyfluorfen, 2-chloro-1-(3-ethoxy-4-nitrophenoxy)-4-(trifluoromethyl)benzene, reference compound]
% visual injury, Obs (Kochia scoparia (kochia); [32]): 55% | % visual injury, Obs [1]: 5% | % visual injury, Obs [2]: 5% | % visual injury, Obs [3]: 10% | % visual injury, Obs [4, 32]: 70% | % visual injury, Obs [5, 32]: 20% | % visual injury, Obs [6]: 15% | % visual injury, Obs [7]: 20% | % visual injury, Obs [8]: 50% | % visual injury, Obs [9]: 40% | % visual injury, Obs [10, 32]: 20% | % visual injury, Obs [11, 32]: 35% | % visual injury, Obs [12, 32]: 60% | % visual injury, Obs [13]: 45% | % visual injury, Obs [14]: 0% | % visual injury, Obs [15, 32]: 80% | % visual injury, Obs [16]: 20% | % visual injury, Obs [17, 32]: 23% | % visual injury, Obs [18]: 70% | % visual injury, Obs [19, 32]: 25% | % visual injury, Obs [20, 32]: 60% | % visual injury, Obs [21]: 0% | % visual injury, Obs [22]: 0% | % visual injury, Obs [23]: 5%

C#CCN(C)c1c(C#N)cnn1-c1nn2c(c1Cl)CCCC2 [Pyraclonil, 1-(3-chloro-4,5,6,7-tetrahydropyrazolo[1,5-a]pyridin-2-yl)-5-[methyl-2-propynylamino]-1H-pyrazole-4-carbonitrile, reference compound]
% visual injury, Obs (Kochia scoparia (kochia); [33]): 15% | % visual injury, Obs [4, 33]: 28% | % visual injury, Obs [24, 33]: 23% | % visual injury, Obs [10, 33]: 15% | % visual injury, Obs [12, 33]: 78% | % visual injury, Obs [15, 33]: 20% | % visual injury, Obs [17, 33]: 3% | % visual injury, Obs [25, 33]: 15%

CCOC(=O)COc1cc(-c2nn(C)c(OC(F)F)c2Cl)c(F)cc1Cl [Pyraflufen-ethyl, ethyl 2-chloro-5-[4-chloro-5-(difluoromethoxy)-1-methyl-1H-pyrazol-3-yl]-4-fluorophenoxyacetate, reference compound]
% visual injury, Obs (Kochia scoparia (kochia); [34]): 0% | % visual injury, Obs [4, 34]: 0% | % visual injury, Obs [5, 34]: 0% | % visual injury, Obs [10, 34]: 0% | % visual injury, Obs [11, 34]: 10% | % visual injury, Obs [12, 34]: 5% | % visual injury, Obs [15, 34]: 0% | % visual injury, Obs [26, 34]: 18% | % visual injury, Obs [17, 34]: 0% | % visual injury, Obs [19, 34]: 0% | % visual injury, Obs [25, 34]: 5%

CC(C)N(C)S(=O)(=O)NC(=O)c1cc(-n2c(=O)cc(C(F)(F)F)n(C)c2=O)c(F)cc1Cl [Saflufenacil, 2-chloro-5-[3,6-dihydro-3-methyl-2,6-dioxo-4-(trifluoromethyl)-1(2H)-pyrimidinyl]-4-fluoro-N-[[methyl(1-methylethyl)-amino]sulfonyl]benzamide, reference compound]
% visual injury, Obs [27]: 28% | % visual injury, Obs [28]: 33% | % visual injury, Obs [24, 35]: 90% | % visual injury, Obs [11, 36]: 80% | % visual injury, Obs [29]: 100% | % visual injury, Obs [26, 35]: 100% | % visual injury, Obs [17, 35]: 10% | % visual injury, Obs [30, 35]: 53% | % visual injury, Obs [30, 36]: 13% | % visual injury, Obs (Zea mays (maize)): 45% | % visual injury, Obs [20, 36]: 55% | % visual injury, Obs [31]: 98%
